Earlier results, collected in patent US20240156891A1, “EXTRACTS OF SALVIA MILTIORRHIZA AND/OR PONCIRUS TRIFOLIATA FOR INHIBITING BODY WEIGHT GAIN” (Taipei Medical University, priority 2022, published 2024).

Details: typical values of solvents

| SMILES | log Kow |
| --- | --- |
| CCCCCC [n-hexane] | 3.17~3.94 |
| CC(C)=O [acetone] | −0.24 |
| CCOC(C)=O [ethyl acetate] | 0.66~0.73 |
| CO [methanol] | −0.82~−0.66 |
